Test results published in ChEMBL document CHEMBL1138274, “Discovery of potent and selective adamantane-based small-molecule P2X(7) receptor antagonists/interleukin-1beta inhibitors” (J Med Chem, 2007).
Active and inactive are the calls of the source. No cut-off for these calls is given here.

Assays:
P2X purinoceptor 7 [1] = target: T1, P2X purinoceptor 7 (Homo sapiens, UniProt Q99572); assay: Antagonist activity at human P2X7 receptor transfected in THP1 cells assessed as inhibition of benzoyl-ATP-induced changes in plasma membrane pore formation; format: functional, cell-based, THP-1; conditions: read-out: pA2 (converted)
T1 sequence (Q99572 whole entry): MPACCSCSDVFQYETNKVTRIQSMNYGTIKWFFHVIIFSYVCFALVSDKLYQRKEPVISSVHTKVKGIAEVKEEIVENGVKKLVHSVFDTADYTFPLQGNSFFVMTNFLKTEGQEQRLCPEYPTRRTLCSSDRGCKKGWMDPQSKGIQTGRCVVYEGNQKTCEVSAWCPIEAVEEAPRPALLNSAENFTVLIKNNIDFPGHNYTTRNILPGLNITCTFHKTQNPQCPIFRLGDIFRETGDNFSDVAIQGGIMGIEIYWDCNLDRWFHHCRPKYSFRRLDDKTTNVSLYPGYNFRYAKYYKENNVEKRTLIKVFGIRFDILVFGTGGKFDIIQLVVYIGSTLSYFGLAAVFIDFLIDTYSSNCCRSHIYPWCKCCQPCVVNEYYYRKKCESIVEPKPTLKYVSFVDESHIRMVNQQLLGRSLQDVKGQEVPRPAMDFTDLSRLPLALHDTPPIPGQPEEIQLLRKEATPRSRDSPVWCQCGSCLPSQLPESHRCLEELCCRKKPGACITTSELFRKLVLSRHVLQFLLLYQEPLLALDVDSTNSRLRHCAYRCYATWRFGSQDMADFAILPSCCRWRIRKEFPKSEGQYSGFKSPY

P2X purinoceptor 7 [2] = target: T2, P2X purinoceptor 7 (Rattus norvegicus, UniProt Q64663); assay: Antagonist activity at rat P2X7 receptor transfected in HEK cells assessed as inhibition of benzoyl-ATP-induced changes in plasma membrane pore formation; format: functional, cell-based, HEK293; conditions: for Kb: read-out: pA2 (converted)
T2 sequence (Q64663 whole entry): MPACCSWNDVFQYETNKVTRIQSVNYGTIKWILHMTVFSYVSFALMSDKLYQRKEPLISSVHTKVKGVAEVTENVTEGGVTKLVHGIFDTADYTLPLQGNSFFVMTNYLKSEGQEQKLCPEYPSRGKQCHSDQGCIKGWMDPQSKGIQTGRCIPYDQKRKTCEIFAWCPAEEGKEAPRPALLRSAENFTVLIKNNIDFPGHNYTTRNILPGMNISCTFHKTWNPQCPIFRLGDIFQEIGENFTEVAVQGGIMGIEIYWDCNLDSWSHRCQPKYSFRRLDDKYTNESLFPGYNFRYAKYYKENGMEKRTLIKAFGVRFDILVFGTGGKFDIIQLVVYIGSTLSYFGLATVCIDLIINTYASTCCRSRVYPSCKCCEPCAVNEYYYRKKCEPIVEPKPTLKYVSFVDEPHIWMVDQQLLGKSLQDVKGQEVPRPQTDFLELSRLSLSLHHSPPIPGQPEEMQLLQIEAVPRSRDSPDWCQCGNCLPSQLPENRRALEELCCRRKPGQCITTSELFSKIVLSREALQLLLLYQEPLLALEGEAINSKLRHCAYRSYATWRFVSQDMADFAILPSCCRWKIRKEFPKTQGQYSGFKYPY

[3] = target: T3, P2X purinoceptor 4 (Homo sapiens) (UniProt Q99571); assay: Activity at human P2X4 receptor at 10 uM
T3 sequence (whole entry): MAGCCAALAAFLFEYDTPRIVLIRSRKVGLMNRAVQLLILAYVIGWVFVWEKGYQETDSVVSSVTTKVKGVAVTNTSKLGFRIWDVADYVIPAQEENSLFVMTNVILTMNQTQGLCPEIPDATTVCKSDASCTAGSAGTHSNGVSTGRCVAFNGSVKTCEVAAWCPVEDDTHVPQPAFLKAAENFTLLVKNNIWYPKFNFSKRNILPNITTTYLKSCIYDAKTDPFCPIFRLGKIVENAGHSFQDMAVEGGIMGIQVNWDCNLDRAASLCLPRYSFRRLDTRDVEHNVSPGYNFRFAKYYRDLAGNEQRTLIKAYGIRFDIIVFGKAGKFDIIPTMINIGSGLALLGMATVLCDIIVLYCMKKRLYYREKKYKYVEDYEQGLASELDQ

[4] = target: P2X purinoceptor 5 (Homo sapiens) (UniProt Q93086); assay: Activity at human P2X5 receptor at 10 uM
Chain of P2X purinoceptor 5 (Homo sapiens) (Q93086 whole entry): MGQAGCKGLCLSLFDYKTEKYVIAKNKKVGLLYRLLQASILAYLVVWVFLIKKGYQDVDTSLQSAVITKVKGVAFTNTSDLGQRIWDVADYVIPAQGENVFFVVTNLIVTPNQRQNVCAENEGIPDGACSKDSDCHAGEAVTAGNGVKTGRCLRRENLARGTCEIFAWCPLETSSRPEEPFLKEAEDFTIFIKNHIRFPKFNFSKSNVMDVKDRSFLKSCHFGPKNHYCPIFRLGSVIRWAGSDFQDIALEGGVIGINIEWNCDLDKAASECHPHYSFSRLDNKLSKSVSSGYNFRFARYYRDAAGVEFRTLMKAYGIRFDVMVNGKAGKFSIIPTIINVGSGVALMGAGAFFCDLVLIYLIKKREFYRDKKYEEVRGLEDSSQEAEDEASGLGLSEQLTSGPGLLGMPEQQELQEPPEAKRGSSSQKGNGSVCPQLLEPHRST

Rattus norvegicus = species: Rattus norvegicus; assay: Activity at rat P2X2/3 heteromeric receptor at 10 uM
[5] = target: T4, P2X purinoceptor 2 (Rattus norvegicus) (UniProt P49653); assay: Activity at rat P2X2 receptor at 10 uM
T4 sequence (whole entry): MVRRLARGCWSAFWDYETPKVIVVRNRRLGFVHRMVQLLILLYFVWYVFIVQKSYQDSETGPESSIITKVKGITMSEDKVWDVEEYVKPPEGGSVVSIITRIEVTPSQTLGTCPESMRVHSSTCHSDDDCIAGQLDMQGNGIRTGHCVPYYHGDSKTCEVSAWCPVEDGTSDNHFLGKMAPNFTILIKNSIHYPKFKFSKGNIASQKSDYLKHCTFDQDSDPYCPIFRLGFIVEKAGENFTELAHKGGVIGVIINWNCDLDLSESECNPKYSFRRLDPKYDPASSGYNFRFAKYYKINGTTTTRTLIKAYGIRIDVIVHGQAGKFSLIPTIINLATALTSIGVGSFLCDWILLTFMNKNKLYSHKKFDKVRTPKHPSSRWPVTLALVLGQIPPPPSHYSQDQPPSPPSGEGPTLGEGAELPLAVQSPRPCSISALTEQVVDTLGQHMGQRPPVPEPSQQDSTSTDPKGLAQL

[6] = target: T5, P2X purinoceptor 3 (Homo sapiens) (UniProt P56373); assay: Activity at human P2X3 receptor at 10 uM
T5 sequence (whole entry): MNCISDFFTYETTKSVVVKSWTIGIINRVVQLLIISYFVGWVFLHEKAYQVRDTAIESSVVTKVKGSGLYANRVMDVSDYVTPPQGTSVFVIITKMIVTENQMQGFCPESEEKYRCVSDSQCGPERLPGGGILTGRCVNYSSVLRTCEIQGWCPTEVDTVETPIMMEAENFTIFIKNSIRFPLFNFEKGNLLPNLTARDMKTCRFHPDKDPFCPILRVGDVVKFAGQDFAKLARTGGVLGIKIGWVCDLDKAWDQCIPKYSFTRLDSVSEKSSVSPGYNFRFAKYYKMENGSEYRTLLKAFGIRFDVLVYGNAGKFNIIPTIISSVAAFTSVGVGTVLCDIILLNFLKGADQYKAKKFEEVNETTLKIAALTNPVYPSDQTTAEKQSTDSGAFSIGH

[7] = Activity at sigma receptor; set-up: species or system Homo sapiens
[8] = target: T6, P2X purinoceptor 1 (Homo sapiens) (UniProt P51575); assay: Activity at human P2X1 receptor at 10 uM
T6 sequence (whole entry): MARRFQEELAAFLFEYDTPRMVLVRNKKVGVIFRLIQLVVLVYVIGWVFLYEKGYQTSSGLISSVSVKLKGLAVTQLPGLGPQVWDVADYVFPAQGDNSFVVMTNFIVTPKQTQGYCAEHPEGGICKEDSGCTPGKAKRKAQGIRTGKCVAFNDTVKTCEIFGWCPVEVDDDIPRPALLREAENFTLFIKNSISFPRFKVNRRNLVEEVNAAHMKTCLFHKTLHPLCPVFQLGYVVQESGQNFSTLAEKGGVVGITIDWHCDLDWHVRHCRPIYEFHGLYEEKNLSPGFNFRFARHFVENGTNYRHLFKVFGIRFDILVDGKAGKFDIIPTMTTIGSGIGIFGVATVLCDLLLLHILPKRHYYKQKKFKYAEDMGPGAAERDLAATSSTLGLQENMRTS

[9] = Protein binding in rat plasma; format: ADME, cell-free; conditions: read-out: PPB (converted)
Vasopressin V1a receptor = Vasopressin V1a receptor (Homo sapiens, UniProt P37288); assay: Activity at vasopressin V1A receptor
Chain of Vasopressin V1a receptor (P37288 whole entry): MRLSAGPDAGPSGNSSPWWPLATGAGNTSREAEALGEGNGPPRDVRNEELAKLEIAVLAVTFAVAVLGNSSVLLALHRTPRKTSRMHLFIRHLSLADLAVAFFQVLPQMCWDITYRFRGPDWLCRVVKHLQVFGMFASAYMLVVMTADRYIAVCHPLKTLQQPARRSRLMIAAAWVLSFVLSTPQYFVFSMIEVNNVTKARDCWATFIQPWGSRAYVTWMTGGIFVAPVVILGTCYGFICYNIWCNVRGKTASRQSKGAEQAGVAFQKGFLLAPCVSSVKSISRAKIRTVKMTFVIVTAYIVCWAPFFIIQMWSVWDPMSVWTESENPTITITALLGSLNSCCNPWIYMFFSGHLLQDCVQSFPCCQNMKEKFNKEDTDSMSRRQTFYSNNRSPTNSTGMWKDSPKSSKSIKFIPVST

[10] = Clearance in Sprague-Dawley rat; format: ADME, organism-based; conditions: in vivo
[11] = Half life in Sprague-Dawley rat; format: ADME, organism-based; conditions: in vivo
Monocyte [12] = assay: Inhibition of BzATP-induced IL1-beta release from LPS-primed human monocytes by ELISA; format: functional, cell-based
[13] = Bioavailability in Sprague-Dawley rat; format: ADME, organism-based; conditions: in vivo
Monocyte [14] = assay: Inhibition of BzATP-induced IL18 release from LPS-primed human monocytes by ELISA; format: functional, cell-based
[15] = Volume of distribution at steady state in Sprague-Dawley rat; format: ADME, organism-based; conditions: in vivo, read-out: Vdss
Hepatocyte [16] = assay: Intrinsic clearance in rat hepatocytes; format: ADME, cell-based, Liver
Hepatocyte [17] = assay: Intrinsic clearance in human hepatocytes; format: ADME, cell-based, Liver

Row | SMILES | Kb (P2X purinoceptor 7 [1]) [µM] | IC50 (P2X purinoceptor 7 [2]; read-out: Log IC50 (converted)) [µM] | also measured
1 | O=C(NCC12CC3CC(CC(C3)C1)C2)c1cc(C2CCNCC2)ccc1Cl | 0.0158 | 0.316 | –
2 | O=C(NCC12CC3CC(CC(C3)C1)C2)c1cc(CC2CCNCC2)ccc1Cl | 0.0158 | 0.0631 | –
3 | O=C(NCC12CC3CC(CC(C3)C1)C2)c1cc(NC2CCNCC2)ccc1Cl | 0.0251 | 0.501 | –
4 | O=C(NCC12CC3CC(CC(C3)C1)C2)c1c(Cl)cccc1OC1CCNCC1 | > 10 | > 10 | –
5 | O=C(NCC12CC3CC(CC(C3)C1)C2)c1cc(NC2CCCNC2)ccc1Cl (racemic) | 0.00501 | – | IC50 (P2X purinoceptor 7 [2]; read-out: IC50): 0.03 µM
6 | O=C(NCC12CC3CC(CC(C3)C1)C2)c1cc(O[C@H]2CCCNC2)ccc1Cl | 0.01 | 0.1 | –
7 | Cc1ccc(C(=O)N2CC3CNCC(C2)O3)cc1C(=O)NCC12CC3CC(CC(C3)C1)C2 | – | – | Activity [3]: inactive; Activity [4]: inactive; Activity (Rattus norvegicus): inactive; Activity [5]: inactive; Activity [6]: inactive; IC50 [7]: 4 µM; Activity [8]: inactive; fraction unbound [9]: 0.34; IC50 (Vasopressin V1a receptor): 7 µM; Kb (P2X purinoceptor 7 [2]): 0.0158 µM
8 | O=C(NCC12CC3CC(CC(C3)C1)C2)c1cc(CN2CCNCC2)ccc1Cl | 0.01 | 0.398 | clearance [10]: 0.78 L/h/kg; half-life [11]: 5.2 h; IC50 (Monocyte [12]): 0.0794 µM; bioavailability [13]: 79%; IC50 (Monocyte [14]): 0.0398 µM; Vd [15]: 5.31 L/kg; CL (Hepatocyte [16]): < 5 µL/min; CL (Hepatocyte [17]): < 3 µL/min
9 | O=C(NCC12CC3CC(CC(C3)C1)C2)c1cc(CN2C[C@@H]3C[C@H]2CN3)ccc1Cl | 0.00501 | 0.251 | –
10 | O=C(NCC12CC3CC(CC(C3)C1)C2)c1cc(CN2CC3CNCC(C2)O3)ccc1Cl | – | – | Kb (P2X purinoceptor 7 [2]): 0.0251 µM
11 | O=C(NCC12CC3CC(CC(C3)C1)C2)c1ccc(CN2CCCCC2)cc1Cl | 0.126 | 0.794 | –
12 | Cc1nnc(OC2CCNCC2)cc1C(=O)NCC12CC3CC(CC(C3)C1)C2 | 1.58 | 0.794 | –
13 | O=C(NCC12CC3CC(CC(C3)C1)C2)c1cc(C(=O)N2CC3CNCC(C2)O3)ccc1Cl | – | – | Activity [3]: inactive; Activity [4]: inactive; Activity (Rattus norvegicus): inactive; Activity [5]: inactive; Activity [6]: inactive; IC50 [7]: 4 µM; IC50 (Vasopressin V1a receptor): 7 µM
14 | O=C(NCC12CC3CC(CC(C3)C1)C2)c1cc(OC2CCNCC2)ccc1Cl | 0.0158 | 0.631 | –
15 | O=C(NCC12CC3CC(CC(C3)C1)C2)c1cc(O[C@@H]2CCCNC2)ccc1Cl | 0.00631 | 0.316 | –
16 | O=C(NCC12CC3CC(CC(C3)C1)C2)c1cc(N2CCNCC2)ccc1Cl | 0.0316 | 1.26 | –
17 | O=C(NCC12CC3CC(CC(C3)C1)C2)c1cccc(CN2CCCCC2)c1Cl | 0.2 | > 10 | –
18 | Cc1oc(CN2CCNCC2)cc1C(=O)NCC12CC3CC(CC(C3)C1)C2 | > 10 | > 10 | Activity (Monocyte [12]): inactive; Activity (Monocyte [14]): Active
19 | O=C(NCC12CC3CC(CC(C3)C1)C2)c1nc(OC2CCCNC2)ncc1Cl (centres undefined) | 0.251 | 0.316 | –
20 | Cc1sc(CN2CCNCC2)cc1C(=O)NCC12CC3CC(CC(C3)C1)C2 | 0.316 | > 10 | –
21 | O=C(NCC12CC3CC(CC(C3)C1)C2)c1cc(CC2CCCNC2)ccc1Cl (racemic) | 0.00631 | – | IC50 (P2X purinoceptor 7 [2]; read-out: IC50): 0.03 µM
